# In patent US7741352B2, “KCNQ channel modulating compounds and their pharmaceutical use” (Neurosearch A/S, priority 2003, dated 2010):
row,Structure (SMILES),melting point
1,"O=C(O)c1ccc(OCCCCC(O)CO)cc1O (centres unmarked) [Compound 2-3, 4-(5,6-Dihydroxhexoxy)-2-hydroxy-benzoic acid]",152 °C
2,"C=CCCCCOc1ccc(C(=O)O)c(O)c1 [Compound 1-7, 4-Hex-5-enyloxy-2-hydroxy-benzoic acid]",105 °C
3,"O=C(O)c1ccc(OCc2ccc(F)cc2)cc1O [Compound 1-18, 4-(4-Fluoro-benzyloxy)-2-hydroxy-benzoic acid]",196 to 198 °C
4,"O=C(O)c1ccc(OCc2ccc(-c3ccccc3)cc2)cc1O [Compound 1-16, 4-(Biphenyl-4-ylmethoxy)-2-hydroxy-benzoic acid]",216 to 219 °C (dec.)
5,"CC(C)=CCC/C(C)=C/COc1ccc(C(=O)O)c(O)c1 [Compound 1-13, 4-(3,7-Dimethyl-octa-2,6-dienyloxy)-2-hydroxybenzoic acid]",97 to 106 °C
6,"N#Cc1ccccc1-c1ccc(COc2ccc(C(=O)O)c(O)c2)cc1 [Compound 1-17, 4-(2′-Cyano-biphenyl-4-ylmethoxy)-2-hydroxy-benzoic acid]",220 °C (dec.)
7,"O=C(O)c1ccc(OCCCCCCCCO)cc1O [Compound 1-9, 2-Hydroxy-4-(8-hydroxy-octyloxy) benzoic acid]",119 to 121 °C
8,"CCCCCCCCOc1ccc(C(=O)O)c(O)c1 [Compound 1-3, 2-Hydroxy-4-octyloxy-benzoic acid]",100 to 102 °C
9,"O=C(O)c1ccc(OCc2cccc(Br)c2)cc1O [Compound 1-23, 4-(3-Bromo-benzyloxy)-2-hydroxy-benzoic acid]",191 to 197 °C
10,"O=C(O)c1ccc(OCc2ccc(-n3cncn3)cc2)cc1O [Compound 1-2, 2-Hydroxy-4-(4-[1,2,4]triazol-1-yl-benzyloxy)-benzoic acid]",229 °C (dec.)
11,"O=C(O)c1ccc(OCC(O)CO)cc1O (centres unmarked) [Compound 2-1, 4-(2,3-Dihydroxypropoxy)-2-hydroxy-benzoic acid]",151 to 153 °C
12,"O=C(O)c1ccc(OCCC(O)CO)cc1O (centres unmarked) [Compound 2-2, 4-(3,4-Dihydroxybutoxy)-2-hydroxy-benzoic acid]",140 to 148 °C
13,"O=C(O)c1ccc(OCc2ccc3ccccc3n2)cc1O [Compound 1-19, 2-Hydroxy-4-(quinolin-2-ylmethoxy)-benzoic acid]",197 °C (dec.)
14,"O=C(O)c1ccc(OCCCCCCC(O)CO)cc1O (centres unmarked) [Compound 2-6, 4-(7,8-Dihydroxyoctyloxy)-2-hydroxy-benzoic acid]",168 to 170 °C
15,"O=C(O)c1ccc(OCCCN2CCCCC2)cc1O [Compound 1-21, 2-Hydroxy-4-(3-piperidin-1-yl-propoxy)-benzoic acid]",194 °C (dec.)

# The remaining lines, values ahead:
row,melting point,Structure (SMILES)
1,252 to 257 °C (dec.),"O=C(O)c1ccc(OCc2ccc(-c3ccncc3)cc2)cc1O [Compound 3-2, 2-Hydroxy-4-(4-pyridin-4-yl-benzyloxy)-benzoic acid]"
2,249 to 255 °C (dec.),"O=C(O)c1cccc(-c2ccc(COc3ccc(C(=O)O)c(O)c3)cc2)c1 [Compound 3-7, 4′-(4-Carboxy-3-hydroxy-phenoxymethyl)-biphenyl-3-carboxylic acid]"
3,266 °C (dec.),"O=C(Nc1ccc(C(=O)O)c(O)c1)c1ccc(-c2ccccc2)cc1 [Compound 7-2, 4-[(Biphenyl-4-carbonyl)-amino]-2-hydroxy benzoic acid]"
4,170 to 175 °C (dec.),"O=C(O)c1ccc(OCc2cccc(-c3ccc4c(c3)OCCO4)c2)cc1O [Compound 3-36, 4-[3-(2,3-Dihydro-benzo[1,4]dioxin-6-yl)-benzyloxy]-2-hydroxy-benzoic acid]"
5,184 °C (dec.),"O=C(O)c1ccc(OCc2cccc(-c3ccccc3)c2)cc1O [Compound 3-18, 4-(Biphenyl-3-ylmethoxy)-2-hydroxy-benzoic acid]"
6,94 to 97 °C,"CCCCCCCCCc1ccc(C(=O)O)c(O)c1 [Compound 11-1, 4-Nonyl salicylic acid]"
7,231 to 233 °C (dec.),"CC(=O)Nc1cccc(-c2ccc(COc3ccc(C(=O)O)c(O)c3)cc2)c1 [Compound 3-12, 4-(3′-Acetylamino-biphenyl-4-ylmethoxy)-2-hydroxy-benzoic acid]"
8,153 to 157 °C (dec.),"COc1cc(-c2cccc(COc3ccc(C(=O)O)c(O)c3)c2)ccc1O [Compound 3-26, 2-Hydroxy-4-(4′-hydroxy-3′-methoxy-biphenyl-3-ylmethoxy)-benzoic acid]"
9,205 to 208 °C (dec.),"Nc1cccc(-c2cccc(COc3ccc(C(=O)O)c(O)c3)c2)c1 [Compound 3-24, 4-(3′-Amino-biphenyl-3-ylmethoxy)-2-hydroxy-benzoic acid]"
10,108 to 115 °C (dec.),"CCCCCCCCOc1ccc(O)c(O)c1 [Compound 10-1, 4-Octyloxy-benzene-1,2-diol]"
11,211 to 215 °C (dec.),"O=C(O)c1ccc(OCc2cccc(-c3ccc(Cl)c(Cl)c3)c2)cc1O [Compound 3-30, 4-(3′,4′-Dichloro-biphenyl-3-ylmethoxy)-2-hydroxy-benzoic acid]"
12,193 to 196 °C (dec.),"O=C(O)c1ccc(OCc2cccc(-c3ccc4[nH]ccc4c3)c2)cc1O [Compound 3-34, 2-Hydroxy-4-[3-(1H-indol-5-yl)-benzyloxy]-benzoic acid]"
13,155 to 176 °C (dec.),"Cc1noc(C)c1-c1cccc(COc2ccc(C(=O)O)c(O)c2)c1 [Compound 3-40, 4-[3-(3,5-Dimethyl-isoxazol-4-yl)-benzyloxy]-2-hydroxy-benzoic acid]"
14,196 to 204 °C (dec.),"CN(C)S(=O)(=O)c1ccc(-c2cccc(COc3ccc(C(=O)O)c(O)c3)c2)cc1 [Compound 3-39, 4-(4′-Dimethylsulfamoyl-biphenyl-3-ylmethoxy)-2-hydroxy-benzoic acid]"
15,143 to 145 °C,"O=C(Nc1ccc(OCc2ccc(F)cc2)cc1O)C(F)(F)F [Compound 9-3, 2,2,2-trifluoro-N-[4-(4-fluoro-benzyloxy)-2-hydroxy-phenyl]-acetamide]"
16,188 to 193 °C (dec.),"O=C(O)c1ccc(OCc2cccc(-c3cccc([N+](=O)[O-])c3)c2)cc1O [Compound 3-23, 2-Hydroxy-4-(3′-nitro-biphenyl-3-ylmethoxy)-benzoic acid]"
17,211 to 227 °C (dec.),"O=C(O)c1cccc(-c2cccc(COc3ccc(C(=O)O)c(O)c3)c2)c1 [Compound 3-21, 3′-(4-Carboxy-3-hydroxy-phenoxymethyl)-biphenyl-3-carboxylic acid]"
18,69 to 71 °C,"CCCCCCCCOc1ccc(C#N)c(O)c1 [Compound 12-5, 2-Hydroxy-4-octyloxy-benzonitrile]"

row,melting point,Structure (SMILES)
1,209 to 211 °C (dec.),"O=C(O)c1ccc(OCc2ccc(-c3cccnc3)cc2)cc1O [Compound 3-1, 2-Hydroxy-4-(4-pyridin-3-yl-benzyloxy)-benzoic acid]"
2,201 to 205 °C (dec.),"O=C(O)c1ccc(OCc2ccc(-c3ccco3)cc2)cc1O [Compound 3-3, 4-(4-Furan-2-yl-benzyloxy)-2-hydroxy-benzoic acid]"
3,189 to 195 °C (dec.),"O=C(O)c1ccc(OCc2cccc(-c3cccnc3)c2)cc1O [Compound 3-27, 2-Hydroxy-4-(3-pyridin-3-yl-benzyloxy)-benzoic acid]"
4,173 to 180 °C (dec.),"CC(=O)c1cccc(-c2cccc(COc3ccc(C(=O)O)c(O)c3)c2)c1 [Compound 3-20, 4-(3′-Acetyl-biphenyl-3-ylmethoxy)-2-hydroxy-benzoic acid]"
5,211 to 214 °C (dec.),"O=C(O)c1ccc(OCc2ccc(-c3cccc([N+](=O)[O-])c3)cc2)cc1O [Compound 3-10, 2-Hydroxy-4-(3′-nitro-biphenyl-4-ylmethoxy)-benzoic acid]"
6,244 to 248 °C (dec.),"CC(=O)c1ccc(-c2ccc(COc3ccc(C(=O)O)c(O)c3)cc2)s1 [Compound 3-13, 4-[4-(5-Acetyl-thiophen-2-yl)-benzyloxy]-2-hydroxy-benzoic acid]"
7,175 °C (dec.),"O=C(O)c1ccc(NCc2ccc(F)cc2)cc1O [Compound 6-4, 4-(4-Fluoro-benzylamino)-2-hydroxy-benzoic acid]"
8,222 to 226 °C (dec.),"O=C(O)c1ccc(OCc2ccc(-c3ccc4c(c3)OCO4)cc2)cc1O [Compound 3-14, 4-[3′,4′-(Methylenedioxy)-biphenyl-4-ylmethoxy]-2-hydroxy-benzoic acid]"
9,209 to 212 °C (dec.),"O=C(O)c1ccc(OCc2ccc(-c3cccc(O)c3)cc2)cc1O [Compound 3-8, 2-Hydroxy-4-(3′-hydroxy-biphenyl-4-ylmethoxy)-benzoic acid]"
10,197 to 200 °C (dec.),"COc1ccncc1-c1ccc(COc2ccc(C(=O)O)c(O)c2)cc1 [Compound 3-5, 2-Hydroxy-4-[4-(4-methoxy-pyridin-3-yl)-benzyloxy]-benzoic acid]"
11,197 to 199 °C (dec.),"COc1cccc(-c2ccc(COc3ccc(C(=O)O)c(O)c3)cc2)c1 [Compound 3-9, 2-Hydroxy-4-(3′methoxy-biphenyl-4-ylmethoxy)-benzoic acid]"
12,154 °C,"CC(=O)Nc1ccc(CNc2ccc(C(=O)O)c(O)c2)cc1 [Compound 6-3, 4-(4-Acetylamino-benzylamino)-2-hydroxy-benzoic acid]"
13,156 to 164 °C (dec.),"O=C(O)c1ccc(OCc2cccc(-c3cccc4ccccc34)c2)cc1O [Compound 3-37, 2-Hydroxy-4-(3-naphthalen-1-yl-benzyloxy)-benzoic acid]"
14,98 to 101 °C,"CCCCCCCCOc1ccc(NS(C)(=O)=O)c(O)c1 [Compound 9-2, N-(2-hydroxy-4-octyloxy-phenyl)-methanesulfonamide]"
15,155 to 170 °C (dec.),"N#Cc1cccc(-c2cccc(COc3ccc(C(=O)O)c(O)c3)c2)c1 [Compound 3-41, 4-(3′-Cyano-biphenyl-3-ylmethoxy)-2-hydroxy-benzoic acid]"
16,215 to 220 °C (dec.),"CC(=O)c1cccc(-c2ccc(COc3ccc(C(=O)O)c(O)c3)cc2)c1 [Compound 3-6, 4-(3′-Acetyl-biphenyl-4-ylmethoxy)-2-hydroxy-benzoic acid]"
17,161 to 162 °C,"O=C(O)c1ccc(NCc2ccc(OC(F)F)cc2)cc1O [Compound 6-2, 4-(4-Difluoromethoxy-benzylamino)-2-hydroxy-benzoic acid]"
